The values below come from patent US20050282887A1, “Novel sulfamate and sulfamide derivatives useful for the treatment of epilepsy and related disorders” (priority 2004, published 2005).

One series has as its system CF-1 male albino mice. Nature of the series: Maximal Electroshock Test (MES), anticonvulsant activity. Type of series: in vivo. As for the experimental part:
Anticonvulsant activity was determined using the MES test, run according to the procedure described in detail below. Swinyard E A, Woodhead J H, White H S, Franklin M R. Experimental selection, quantification, and evaluation of anticonvulsants. In Levy R H, et al., eds. Antiepileptic Drugs. 3rd ed. New York: Raven Press, 1989:85-102
CF-1 male albino mice (25-35 g) were fasted for 16 hours before testing. Mice were randomly selected into control and test groups, with the animals dosed with vehicle or test compound, at varying concentrations, respectively. On the study date, at 30 minutes prior to shock, the mice were orally dosed with vehicle (0.5% methylcellulose) or test compound (100-300 mg/kg). Seizures were induced by trans-corneal electric shock using a 60-Hz alternating current, 50 mA, delivered for 0.2 sec. The mice in the test groups were subjected to electrical stimulus at time intervals between 15 minutes and 4 hours following administration of test compound. […] The test was complete when the entire course of the convulsion has been observed (typically, less than 1 minute after electrical stimulation), and the mice were then immediately euthanized by carbon dioxide inhalation.
Abolition of the full body tonic extensor component of the seizure was taken as the endpoint of the test. […] The ED50 value of the test compound (calculated when appropriate) was the calculated dose required to block the hind limb tonic-extensor component of the MES-induced seizure in 50% of the rodents tested. A probit analysis was used to calculate the ED50 and 95% fiducial limits (FL).
Representative compounds of the present invention were tested according to the procedure described above, with results as listed in Table 4 below. Results are listed as number of mice with full body tonic extension prevented/total number of mice tested @ a given time (at a given test compound dosage level).
Background: In the maximal electroshock model the usual endpoint is tonic extension of the hind limbs.

The next series relates to carbonic anhydrase. The following applies: cited from earlier work.

Take `NS(=O)(=O)NCC1COc2ccccc2O1` (racemic) [Compound #1, N-(2,3-Dihydro-benzo[1,4]dioxin-2-ylmethyl)-sulfamide]: in the series on CF-1 male albino mice (@ 1 h, 300 mg/kg oral), the “MES Activity: number of mice with full body tonic extension prevented/total number of mice tested” value is 2/4 @ 1 h (300 mg/kg). On to `CN(C)S(=O)(=O)NCC1COc2ccccc2O1` (racemic) [Compound #6, N-(2,3-Dihydro-benzo[1,4]dioxin-2-ylmethyl)-N′,N′ dimethylsulfamide], for which the melting point (commonly the temperature, or range, at which the solid turns liquid) is 76 to 78 °C. The “MES Activity: number of mice with full body tonic extension prevented/total number of mice tested” value in the series on CF-1 male albino mice (@ 0.5 h, 300 mg/kg oral) is recorded as 4/5 @ 0.5 h (300 mg/kg).

For `CN(CC1COc2ccccc2O1)S(N)(=O)=O` (racemic) [Compound #7, N-(2,3-Dihydro-benzo[1,4]dioxin-2-ylmethyl)-N-methylsulfamide], the melting point was in the range of 97 to 98 °C. Besides, in the series with CF-1 male albino mice (@ 0.5 h, 300 mg/kg oral), the “MES Activity: number of mice with full body tonic extension prevented/total number of mice tested” value is on record as 3/3 @ 0.5 h (300 mg/kg). In the case of `NS(=O)(=O)NCC1Oc2ccccc2O1` [Compound #2, (Benzo[1,3]dioxol-2-ylmethyl)sulfamide], the “MES Activity: number of mice with full body tonic extension prevented/total number of mice tested” value in the series with CF-1 male albino mice (@ 2 h, 100 mg/kg oral) is 4/4 @ 2 h (100 mg/kg). Turning to `NS(=O)(=O)NCC1COc2ccccc2OC1` [Compound #3, ((3,4-Dihydro-2H-benzo[b][1,4]dioxepin-3-yl)methyl)sulfamide], the “MES Activity: number of mice with full body tonic extension prevented/total number of mice tested” value with CF-1 male albino mice (@ 1 h, 300 mg/kg oral) was 2/3 @ 1 h (300 mg/kg).

On to `NS(=O)(=O)NC[C@H]1COc2ccccc2O1` [Compound #4, (2S)-(−)-N-(2,3-Dihydro-benzo[1,4]dioxin-2-ylmethyl)-sulfamide], for which the “MES Activity: number of mice with full body tonic extension prevented/total number of mice tested” value in the series on CF-1 male albino mice (@ 1 h, 300 mg/kg oral) is reported as 5/5 @ 1 h (300 mg/kg). In the case of `NS(=O)(=O)NC[C@H]1COc2cc(Cl)ccc2O1` [Compound #8, (2S)-(−)-N-(6-Chloro-2,3-dihydro-benzo[1,4]dioxin-2-ylmethyl)-sulfamide], the “MES Activity: number of mice with full body tonic extension prevented/total number of mice tested” value with CF-1 male albino mice (@ 3 h, 100 mg/kg oral) is reported as 3/5 @ 3 h (100 mg/kg).

Molecule `NS(=O)(=O)NCC1CCc2ccccc2O1` (stereo not drawn) [Compound #10, Chroman-2-ylmethylsulfamide] showed a melting point of 100 to 101 °C. Further, the “MES Activity: number of mice with full body tonic extension prevented/total number of mice tested” value in the series on CF-1 male albino mice (@ 1 h, 100 mg/kg oral) was 1/5 @ 1 h (100 mg/kg). `NS(=O)(=O)OCC1CCc2ccccc2O1` (stereo not drawn) [Compound #11, Chroman-2-ylmethylsulfamate] returned a melting point of 87 to 90 °C. On to `NS(=O)(=O)OC[C@H]1COc2cc(Cl)ccc2O1` [Compound #12, Sulfamic acid, 6-chloro-2,3-dihydro-benzo[1,4]dioxin-2-ylmethyl ester], for which the melting point is 113 to 116 °C. Moreover, in the series on CF-1 male albino mice (@ 4 h, 100 mg/kg oral), the “MES Activity: number of mice with full body tonic extension prevented/total number of mice tested” value is 3/5 @ 4 h (100 mg/kg). `NS(=O)(=O)NCCC1COc2ccccc2O1` (stereo not drawn) [Compound #16, 2-(2,3-Dihydro-benzo[1,4]dioxin-2-yl)-ethylsulfamide] had a melting point of 101 to 103 °C. Moreover, the “MES Activity: number of mice with full body tonic extension prevented/total number of mice tested” value in the series on CF-1 male albino mice (@ 0.5 h, 300 mg/kg oral) was 5/5 @ 0.5 h (300 mg/kg).

As for `Cc1ccc2c(c1)O[C@@H](CNS(N)(=O)=O)CO2` [Compound #19, (2S)-(−)-N-(7-Methyl-2,3-dihydro-benzo[1,4]dioxin-2-ylmethyl)-sulfamide], the “MES Activity: number of mice with full body tonic extension prevented/total number of mice tested” value in the series on CF-1 male albino mice (@ 0.5 h, 300 mg/kg oral) was 5/5 @ 0.5 h (300 mg/kg). In turn, `NS(=O)(=O)NC[C@H]1COc2cc(Cl)c(Cl)cc2O1` [Compound #29, (2S)-(−)-N-(6,7 Dichloro-2,3-dihydro-benzo[1,4]dioxin-2-ylmethyl)-sulfamide] showed a melting point of 119 to 121 °C. Besides, the “MES Activity: number of mice with full body tonic extension prevented/total number of mice tested” value with CF-1 male albino mice (@ 4 h, 100 mg/kg oral) is 3/5 @ 4 h (100 mg/kg). Turning to `Nc1ccc2c(c1)O[C@@H](CNS(N)(=O)=O)CO2` [Compound #36, (2S)-(−)-N-(7-Amino-2,3-dihydro-benzo[1,4]dioxin-2-ylmethyl)-sulfamide], in the series on CF-1 male albino mice (@ 100 and 300 mg/kg oral), the “MES Activity (result in words)” value is “Inactive @ 100 and 300 mg/kg”.

On to `CC1(C)O[C@@H]2[C@@H](CO[C@@]3(COS(N)(=O)=O)OC(C)(C)O[C@@H]23)O1` [Topiramate], for which, in the series with carbonic anhydrase, the carbonic anhydrase inhibition result is “single digit micromolar”. On to `NS(=O)(=O)NC[C@H]1COc2ccc(Cl)cc2O1` [compound 14, (2S)-(−)-N-(7-Chloro-2,3-dihydro-benzo[1,4]dioxin-2-ylmethyl)-sulfamide], for which the “MES Activity: number of mice with full body tonic extension prevented/total number of mice tested” value with CF-1 male albino mice (@ 4 h, 100 mg/kg oral) is given as 3/5 @ 4 h (100 mg/kg). With `NS(=O)(=O)NC[C@H]1COc2ccc([N+](=O)[O-])cc2O1` [compound 18, (2S)-(−)-N-(2,3-Dihydro-7-nitro-benzo[1,4]dioxin-2-ylmethyl)-sulfamide], in the series with CF-1 male albino mice (@ 100 mg/kg oral), the “MES Activity (result in words)” value is reported as “Inactive @ 100 mg/kg”. Consider “Sulfamic acid, 6,7 dichloro-2,3-dihydro-benzo[1,4]dioxin-2-ylmethyl ester [Compound #27]”, for which, in the series on CF-1 male albino mice (@ 4 h, 100 mg/kg oral), the “MES Activity: number of mice with full body tonic extension prevented/total number of mice tested” value is 5/5 @ 4 h (100 mg/kg).
